From patent US20230301300A1, “HERBICIDAL COMPOSITIONS” (SYNGENTA CROP PROTECTION AG, priority 2020, published 2023)

Experiments:
Experiment in all cases: B2 Post-Emergence Efficacy - Test 2
Assay type in all cases: in vivo
[1] = test system: Euphorbia hetrophylla (EPHHL); settings: 15 days after application, 0-100 scale
Procedure, shortened: (§1)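 A 0–100 damage rating taken 15 days after application. Plants: 12 days old at spraying, glasshouse-grown (16 h light, 65% humidity, day/night 24/18 or 20/16 °C), watered twice daily. Spray: aqueous IF50 formulation, 0.2% v/v Genapol X080.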

Stellaria media (STEME) = settings: 15 days after application, 0-100 scale
Procedure, shortened: as §1

Eleisine indica (ELEIN) = settings: 15 days after application, 0=no damage, 100=total kill
Procedure, shortened: as §1

Zea mays (ZEAMX) = settings: 15 days after application; for Herbicidal activity ZEAMX: 0-100 scale; for Herbicidal activity on a 0-100 scale, ZEAMX: 0=no damage, 100=total kill
Procedure, shortened: as §1

[2] = test system: Brachiaria plantaginea (BRAPL); settings: 15 days after application, 0=no damage, 100=total kill
Procedure, shortened: as §1

Bromus tectorum (BROTE) = settings: 15 days after application, 0-100 scale
Procedure, shortened: as §1

[3] = test system: Chenopodium album (CHEAL); settings: 15 days after application, 0-100 scale
Procedure, shortened: as §1

Hordeum vulgare (HORVW) = settings: 15 days after application, 0-100 scale
Procedure, shortened: as §1

Setaria faberi (SETFA) = settings: 15 days after application, 0=no damage, 100=total kill
Procedure, shortened: as §1

[4] = test system: Abutilon theophrasti (ABUTH); settings: 15 days after application, 0-100 scale
Procedure, shortened: as §1

Sinapis arvensis (SINAR) = settings: 15 days after application, 0-100 scale
Procedure, shortened: as §1

[5] = test system: Echinochloa crus galli (ECHCG); settings: 15 days after application, 0=no damage, 100=total kill
Procedure, shortened: as §1

[6] = test system: Triticum aestivum (TRZAW); settings: 15 days after application, 0-100 scale
Procedure, shortened: as §1

[7] = test system: Alopecurus myosuroides (ALOMY); settings: 15 days after application, 0-100 scale
Procedure, shortened: as §1

Bidens pilosa (BIDPI) = settings: 15 days after application, 0-100 scale
Procedure, shortened: as §1

Lolium perenne (LOLPE) = settings: 15 days after application, 0-100 scale
Procedure, shortened: as §1

Sorghum bicolour (SORVU) = settings: 15 days after application, 0=no damage, 100=total kill
Procedure, shortened: as §1

[8] = test system: Digitaria sanguinalis (DIGSA); settings: 15 days after application, 0=no damage, 100=total kill
Procedure, shortened: as §1

Cc1nn(C)c(=O)c(-c2c(F)ccc(Cl)c2CCc2ccc(F)cc2)c1OC(=O)C(C)C [Compound 1.125, [5-[3-chloro-6-fluoro-2-[2-(4-fluorophenyl)ethyl]phenyl]-1,3-dimethyl-6-oxo-pyridazin-4-yl] 2-methylpropanoate]
Herbicidal activity EPHHL ([1]; 15 g/Ha): 90 | Herbicidal activity EPHHL ([1]; 30 g/Ha): 90 | Herbicidal activity EPHHL ([1]; 60 g/Ha): 100 | Herbicidal activity EPHHL ([1]; 125 g/Ha): 100 | Herbicidal activity EPHHL ([1]; 250 g/Ha): 100 | Herbicidal activity EPHHL ([1]; 500 g/Ha): 100 | Herbicidal activity STEME (Stellaria media (STEME); 15 g/Ha): 90 | Herbicidal activity STEME (Stellaria media (STEME); 30 g/Ha): 90 | Herbicidal activity STEME (Stellaria media (STEME); 60 g/Ha): 90 | Herbicidal activity STEME (Stellaria media (STEME); 125 g/Ha): 90 | Herbicidal activity STEME (Stellaria media (STEME); 250 g/Ha): 90 | Herbicidal activity STEME (Stellaria media (STEME); 500 g/Ha): 90 | Herbicidal activity on a 0-100 scale, ELEIN (Eleisine indica (ELEIN); 15 g/Ha): 40 | Herbicidal activity on a 0-100 scale, ELEIN (Eleisine indica (ELEIN); 30 g/Ha): 40 | Herbicidal activity on a 0-100 scale, ELEIN (Eleisine indica (ELEIN); 60 g/Ha): 70 | Herbicidal activity on a 0-100 scale, ELEIN (Eleisine indica (ELEIN); 125 g/Ha): 70 | Herbicidal activity on a 0-100 scale, ELEIN (Eleisine indica (ELEIN); 250 g/Ha): 80 | Herbicidal activity on a 0-100 scale, ELEIN (Eleisine indica (ELEIN); 500 g/Ha): 80 | Herbicidal activity ZEAMX (Zea mays (ZEAMX); 15 g/Ha): 0 | Herbicidal activity on a 0-100 scale, ZEAMX (Zea mays (ZEAMX); 15 g/Ha): 0 | Herbicidal activity ZEAMX (Zea mays (ZEAMX); 30 g/Ha): 20 | Herbicidal activity on a 0-100 scale, ZEAMX (Zea mays (ZEAMX); 30 g/Ha): 20 | Herbicidal activity ZEAMX (Zea mays (ZEAMX); 60 g/Ha): 30 | Herbicidal activity on a 0-100 scale, ZEAMX (Zea mays (ZEAMX); 60 g/Ha): 30 | Herbicidal activity ZEAMX (Zea mays (ZEAMX); 125 g/Ha): 20 | Herbicidal activity on a 0-100 scale, ZEAMX (Zea mays (ZEAMX); 125 g/Ha): 20 | Herbicidal activity ZEAMX (Zea mays (ZEAMX); 250 g/Ha): 40 | Herbicidal activity on a 0-100 scale, ZEAMX (Zea mays (ZEAMX); 250 g/Ha): 40 | Herbicidal activity ZEAMX (Zea mays (ZEAMX); 500 g/Ha): 70 | Herbicidal activity on a 0-100 scale, ZEAMX (Zea mays (ZEAMX); 500 g/Ha): 70 | Herbicidal activity on a 0-100 scale, BRAPL ([2]; 15 g/Ha): 80 | Herbicidal activity on a 0-100 scale, BRAPL ([2]; 60 g/Ha): 80 | Herbicidal activity on a 0-100 scale, BRAPL ([2]; 125 g/Ha): 80 | Herbicidal activity on a 0-100 scale, BRAPL ([2]; 250 g/Ha): 70 | Herbicidal activity on a 0-100 scale, BRAPL ([2]; 500 g/Ha): 80 | Herbicidal activity BROTE (Bromus tectorum (BROTE); 15 g/Ha): 0 | Herbicidal activity BROTE (Bromus tectorum (BROTE); 30 g/Ha): 0 | Herbicidal activity BROTE (Bromus tectorum (BROTE); 60 g/Ha): 0 | Herbicidal activity BROTE (Bromus tectorum (BROTE); 125 g/Ha): 0 | Herbicidal activity BROTE (Bromus tectorum (BROTE); 250 g/Ha): 10 | Herbicidal activity BROTE (Bromus tectorum (BROTE); 500 g/Ha): 10 | Herbicidal activity CHEAL ([3]; 15 g/Ha): 90 | Herbicidal activity CHEAL ([3]; 30 g/Ha): 90 | Herbicidal activity CHEAL ([3]; 60 g/Ha): 90 | Herbicidal activity CHEAL ([3]; 125 g/Ha): 90 | Herbicidal activity CHEAL ([3]; 250 g/Ha): 90 | Herbicidal activity CHEAL ([3]; 500 g/Ha): 90 | Herbicidal activity HORVW (Hordeum vulgare (HORVW); 15 g/Ha): 0 | Herbicidal activity HORVW (Hordeum vulgare (HORVW); 30 g/Ha): 0 | Herbicidal activity HORVW (Hordeum vulgare (HORVW); 60 g/Ha): 10 | Herbicidal activity HORVW (Hordeum vulgare (HORVW); 125 g/Ha): 10 | Herbicidal activity HORVW (Hordeum vulgare (HORVW); 250 g/Ha): 10 | Herbicidal activity HORVW (Hordeum vulgare (HORVW); 500 g/Ha): 10 | Herbicidal activity on a 0-100 scale, SETFA (Setaria faberi (SETFA); 15 g/Ha): 0 | Herbicidal activity on a 0-100 scale, SETFA (Setaria faberi (SETFA); 30 g/Ha): 10 | Herbicidal activity on a 0-100 scale, SETFA (Setaria faberi (SETFA); 60 g/Ha): 20 | Herbicidal activity on a 0-100 scale, SETFA (Setaria faberi (SETFA); 125 g/Ha): 20 | Herbicidal activity on a 0-100 scale, SETFA (Setaria faberi (SETFA); 250 g/Ha): 20 | Herbicidal activity on a 0-100 scale, SETFA (Setaria faberi (SETFA); 500 g/Ha): 100 | Herbicidal activity ABUTH ([4]; 15 g/Ha): 80 | Herbicidal activity ABUTH ([4]; 30 g/Ha): 90 | Herbicidal activity ABUTH ([4]; 60 g/Ha): 90 | Herbicidal activity ABUTH ([4]; 125 g/Ha): 90 | Herbicidal activity ABUTH ([4]; 250 g/Ha): 100 | Herbicidal activity ABUTH ([4]; 500 g/Ha): 100 | Herbicidal activity SINAR (Sinapis arvensis (SINAR); 15 g/Ha): 60 | Herbicidal activity SINAR (Sinapis arvensis (SINAR); 30 g/Ha): 60 | Herbicidal activity SINAR (Sinapis arvensis (SINAR); 60 g/Ha): 80 | Herbicidal activity SINAR (Sinapis arvensis (SINAR); 125 g/Ha): 90 | Herbicidal activity SINAR (Sinapis arvensis (SINAR); 250 g/Ha): 90 | Herbicidal activity SINAR (Sinapis arvensis (SINAR); 500 g/Ha): 90 | Herbicidal activity on a 0-100 scale, ECHCG ([5]; 15 g/Ha): 70 | Herbicidal activity on a 0-100 scale, ECHCG ([5]; 30 g/Ha): 80 | Herbicidal activity on a 0-100 scale, ECHCG ([5]; 60 g/Ha): 80 | Herbicidal activity on a 0-100 scale, ECHCG ([5]; 125 g/Ha): 80 | Herbicidal activity on a 0-100 scale, ECHCG ([5]; 250 g/Ha): 90 | Herbicidal activity on a 0-100 scale, ECHCG ([5]; 500 g/Ha): 100 | Herbicidal activity TRZAW ([6]; 15 g/Ha): 0 | Herbicidal activity TRZAW ([6]; 30 g/Ha): 10 | Herbicidal activity TRZAW ([6]; 60 g/Ha): 10 | Herbicidal activity TRZAW ([6]; 125 g/Ha): 20 | Herbicidal activity TRZAW ([6]; 250 g/Ha): 30 | Herbicidal activity TRZAW ([6]; 500 g/Ha): 50 | Herbicidal activity ALOMY ([7]; 15 g/Ha): 10 | Herbicidal activity ALOMY ([7]; 30 g/Ha): 10 | Herbicidal activity ALOMY ([7]; 60 g/Ha): 30 | Herbicidal activity ALOMY ([7]; 125 g/Ha): 30 | Herbicidal activity ALOMY ([7]; 250 g/Ha): 60 | Herbicidal activity ALOMY ([7]; 500 g/Ha): 40 | Herbicidal activity BIDPI (Bidens pilosa (BIDPI); 15 g/Ha): 60 | Herbicidal activity BIDPI (Bidens pilosa (BIDPI); 30 g/Ha): 60 | Herbicidal activity BIDPI (Bidens pilosa (BIDPI); 60 g/Ha): 70 | Herbicidal activity BIDPI (Bidens pilosa (BIDPI); 125 g/Ha): 70 | Herbicidal activity BIDPI (Bidens pilosa (BIDPI); 250 g/Ha): 80 | Herbicidal activity BIDPI (Bidens pilosa (BIDPI); 500 g/Ha): 100 | Herbicidal activity LOLPE (Lolium perenne (LOLPE); 15 g/Ha): 40 | Herbicidal activity LOLPE (Lolium perenne (LOLPE); 30 g/Ha): 50 | Herbicidal activity LOLPE (Lolium perenne (LOLPE); 60 g/Ha): 60 | Herbicidal activity LOLPE (Lolium perenne (LOLPE); 125 g/Ha): 70 | Herbicidal activity LOLPE (Lolium perenne (LOLPE); 250 g/Ha): 80 | Herbicidal activity LOLPE (Lolium perenne (LOLPE); 500 g/Ha): 90 | Herbicidal activity on a 0-100 scale, SORVU (Sorghum bicolour (SORVU); 15 g/Ha): 0 | Herbicidal activity on a 0-100 scale, SORVU (Sorghum bicolour (SORVU); 30 g/Ha): 50 | Herbicidal activity on a 0-100 scale, SORVU (Sorghum bicolour (SORVU); 60 g/Ha): 50 | Herbicidal activity on a 0-100 scale, SORVU (Sorghum bicolour (SORVU); 125 g/Ha): 70 | Herbicidal activity on a 0-100 scale, SORVU (Sorghum bicolour (SORVU); 250 g/Ha): 80 | Herbicidal activity on a 0-100 scale, SORVU (Sorghum bicolour (SORVU); 500 g/Ha): 90 | Herbicidal activity on a 0-100 scale, DIGSA ([8]; 15 g/Ha): 0 | Herbicidal activity on a 0-100 scale, DIGSA ([8]; 30 g/Ha): 0 | Herbicidal activity on a 0-100 scale, DIGSA ([8]; 60 g/Ha): 0 | Herbicidal activity on a 0-100 scale, DIGSA ([8]; 125 g/Ha): 10 | Herbicidal activity on a 0-100 scale, DIGSA ([8]; 250 g/Ha): 30 | Herbicidal activity on a 0-100 scale, DIGSA ([8]; 500 g/Ha): 70
